From patent publication US11505558B1, “Antiviral heterocyclic compounds” (Enanta Pharmaceuticals, Inc., priority 2019, dated 2022)

The compounds below were run on genotype A, "Long" strain RSV (assay: RSV-A assay (CPE, ATPlite readout in Hep-2 cells)). Details: human respiratory syncytial virus, HEp-2, Hep-2 cells, genotype A "Long" strain RSV, MOI 0.1; read-out: Human RSV-A (“Long” strain) EC50.
Type: cell-based
In short: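 Protection from RSV-induced cytopathic effect, measured as ATPlite luminescence after 5 days, gave EC50 values. Assay used genotype A Long strain at MOI 0.1 on Hep-2 cells seeded at 8,000/well in DMEM growth media with 10% FBS; compounds tested as 2-fold dilutions in duplicate.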

| EC50 | Structure (SMILES) |
| --- | --- |
| < 200 nM | C[C@]1(C(=O)NCCCOC(N)=O)COc2c1cc([C@@](O)(CNC(=O)c1cc(OC3CC3)c3ncccc3c1)C(F)(F)F)nc2-c1ccc(F)cc1 [Example 457] |
| < 200 nM | COc1cc(C(=O)NC[C@](O)(c2cc3c(c(-c4ccc(F)cc4)n2)OC[C@]3(C)C(N)=O)C(F)(F)F)ccc1-c1cnco1 [Example 187] |
| > 200 nM | C[C@]1(C(N)=O)COc2c1cc([C@@](O)(CNC(=O)c1ccc(OC3CC3)c(-c3ccncc3C(F)(F)F)c1)C(F)(F)F)nc2-c1ccc(F)cc1 [Example 113] |
| < 200 nM | C[C@]1(C(N)=O)COc2c1cc([C@@](O)(CNC(=O)c1ccc3c(c1)NCCO3)C(F)(F)F)nc2-c1ccc(F)cc1 [Example 607] |
| < 200 nM | C[C@]1(C(N)=O)COc2c1cc([C@@](O)(CNC(=O)c1cc(C#N)c3ncccc3c1)C(F)(F)F)nc2-c1ccc(F)cc1 [Example 274] |
| > 200 nM | C[C@]1(C(N)=O)COc2c1cc([C@@](O)(CNC(=O)c1cc(OCCN)c3ncccc3c1)C(F)(F)F)nc2-c1ccc(F)cc1 [Example 356] |
| < 200 nM | C[C@]1(C(N)=O)COc2c1cc([C@@](O)(CNC(=O)c1ccc3nc(N)oc3c1)C(F)(F)F)nc2-c1ccc(F)cc1 [Example 425] |
| < 200 nM | C[C@]1(C(N)=O)COc2c1cc([C@@](O)(CNC(=O)c1cc(N)c3ncccc3c1)C(F)(F)F)nc2-c1ccc(F)cc1 [Example 279] |

The remaining lines, values behind:

| Structure (SMILES) | EC50 |
| --- | --- |
| C[C@]1(C(N)=O)COc2c1cc([C@@](O)(CNC(=O)c1ccc3cc[nH]c3n1)C(F)(F)F)nc2-c1ccc(F)cc1 [Example 306] | > 200 nM |
| C[C@]1(C(N)=O)COc2c1cc([C@@](O)(CNC(=O)c1cc(NC(=O)NC3CC3)c3ncccc3c1)C(F)(F)F)nc2-c1ccc(F)cc1 [Example 415] | < 200 nM |
| C[C@]1(C(N)=O)COc2c1cc([C@@](O)(CNC(=O)c1cc(OCCNS(C)(=O)=O)c3ncccc3c1)C(F)(F)F)nc2-c1ccc(F)cc1 [Example 358] | > 200 nM |
| COc1cc(C(=O)NC[C@](O)(c2cc3c(c(-c4ccc(F)cc4)n2)OC[C@]3(C)C(N)=O)C(F)(F)F)cc2cc(Br)cnc12 [Example 618] | < 200 nM |
| C[C@]1(C(N)=O)COc2c1cc([C@@](O)(CNC(=O)c1ccc(OC3CC3)c(-c3ccc(=O)[nH]c3)c1)C(F)(F)F)nc2-c1ccc(F)cc1 [Example 132] | > 200 nM |
| COc1cc(C(=O)NC[C@](O)(c2cc3c(c(-c4ccc(F)cc4)n2)OC[C@]3(C)CNC(=O)c2ccccc2)C(F)(F)F)ccc1OCCO [Example 8] | > 200 nM |
| Cn1c(N)nc2cc(C(=O)NC[C@](O)(c3cc4c(c(-c5ccc(F)cc5)n3)OC[C@]4(C)C(N)=O)C(F)(F)F)ccc21 [Example 447] | > 200 nM |
| C[C@]1(C(N)=O)COc2c1cc([C@@](O)(CNC(=O)c1ccc(-c3ccccn3)c(OC3CC3)c1)C(F)(F)F)nc2-c1ccc(F)cc1 [Example 155] | > 200 nM |
| CC(C)(O)CNC(=O)[C@@]1(C)COc2c1cc([C@@](O)(CNC(=O)c1ccc3nc(N)sc3c1)C(F)(F)F)nc2-c1ccc(F)c(Cl)c1 [Example 500] | < 200 nM |
| C[C@]1(C(N)=O)COc2c1cc([C@@](O)(CNC(=O)c1cnccn1)C(F)(F)F)nc2-c1ccc(F)cc1 [Example 299] | > 200 nM |
| C[C@]1(C(N)=O)COc2c1cc([C@@](O)(CNC(=O)c1ccc(OC3CC3)cc1)C(F)(F)F)nc2-c1ccc(F)cc1 [Example 71] | < 200 nM |
| C[C@]1(C(N)=O)COc2c1cc([C@@](O)(CNC(=O)c1cc(OCCF)c3ncccc3c1)C(F)(F)F)nc2-c1ccc(F)cc1 [Example 277] | < 200 nM |
| C[C@]1(C(N)=O)COc2c1cc([C@@](O)(CNC(=O)c1cc(-c3cnc(N)nc3)c3ncccc3c1)C(F)(F)F)nc2-c1ccc(F)cc1 [Example 352] | < 200 nM |
| Cc1cnc2c(N3CCNC3=O)cc(C(=O)NC[C@](O)(c3cc4c(c(-c5ccc(F)cc5)n3)OC[C@]4(C)C(N)=O)C(F)(F)F)cc2c1 [Example 659] | < 200 nM |
| C[C@]1(C(N)=O)COc2c1cc([C@@](O)(CNC(=O)c1ccc3ncc(C4CC4)cc3c1)C(F)(F)F)nc2-c1ccc(F)cc1 [Example 525] | < 200 nM |
